Measurements published in patent US10328060B2, “Certain protein kinase inhibitors” (Shanghai Fochon Pharmaceutical Co., Ltd., priority 2014, dated 2019).

Legend:
SU-DHL-6 cell = SU-DHL-6 cell proliferation assay (MTS); type: cell-based; settings: SU-DHL-6 cells, 48 h
Protocol: To investigate whether a compound is able to inhibit the activity of PI3K in cells, a mechanism-based assay using SU-DHL-6 cell (ATCC number: CRL 2959) was developed. In this assay, inhibition of PI3K-6 was detected by the inhibition of SUDHL-6 cells proliferation. SU-DHL-6 cells were cultured in culture flasks to 40-80% confluence in RPMI-1640 plus 10% fetal bovine serum. Cells were collected and plated onto 96-well-plates at 30000/well. Plates were incubated overnight at 37° C., with 5% CO2 to adhere. Compounds were added to the plates. Final compound concentrations were […], 123.5, 41.2, 13.7, 4.6 and 1.5 nM. Place plates at 37° C., with 5% CO2 for 48 h. After removing the medium, 20 μl MTS/100 μl medium mixture solution were added to each well and incubate the plates for exactly 2 hours. Stop the reaction by adding 25 μl 10% SDS per well. Measure absorbance at 490 nm and 650 nm (reference wavelength). IC50 was calculated using GraphPad Prism 5.0.

WSU-NHL = WSU-NHL cell viability assay (CellTiter-Glo); type: cell-based; settings: WSU-NHL cells, 48 h
Protocol: The cancer cell line WSU-NHL (DSMZ number: ACC 58) was maintained in RPMI-1640 medium with 10% FBS, at 37° C. in an atmosphere of 5% CO2. The tumor cells were routinely sub-cultured twice weekly by trypsin-EDTA treatment. The cells growing in an exponential growth phase were harvested, counted, and planted in 96-well plated by 5000 cells/well. After 24 hours' culture, the series diluted test articles were added into wells, then return the assay plate into the incubator and continue culture for 48 h. At the ending point of incubation, the assay plates were detected by Promega CellTiter-Glo Luminescent Cell Viability Assay Kit (Promege 7572), and the luminescence record of each well was read by the 2104 EnVision plate reader. The data were interpreted by GraphPad Prism5 software.

IC50 (SU-DHL-6 cell; Homo sapiens) [nM]	Structure (SMILES)	IC50 (WSU-NHL; Homo sapiens) [nM]	other results
36	Cc1csc2cc(C(C)Nc3ncnc4[nH]cnc34)c(-c3ccccc3)c(=O)n12 (centres unmarked) [Example 1, 7-(1-(9H-purin-6-ylamino)ethyl)-3-methyl-6-phenyl-5H-thiazolo[3,2-a]pyridin-5-one]		
60	CCC(Nc1ncnc2[nH]cnc12)c1cc2scc(C)n2c(=O)c1-c1ccccc1 (centres unmarked) [Example 2, 7-(1-(9H-purin-6-ylamino)propyl)-3-methyl-6-phenyl-5H-thiazolo[3,2-a]pyridin-5-one]		
713	CC(Nc1ncnc2[nH]cnc12)c1cc2ccccn2c(=O)c1-c1ccccc1 (centres unmarked) [Example 3, 2-(1-(9H-purin-6-ylamino)ethyl)-3-phenyl-4H-quinolizin-4-one]		
72	Cc1csc2cc(C(C)Nc3ncnc4[nH]cnc34)c(-c3ccc(F)cc3)c(=O)n12 (centres unmarked) [Example 5, 7-(1-((9H-purin-6-yl)amino)ethyl)-6-(4-fluorophenyl)-3-methyl-5H-thiazolo[3,2-a]pyridin-5-one]		
60	CCC(Nc1ncnc2[nH]cnc12)c1cc2scc(C)n2c(=O)c1-c1ccc(F)cc1 (centres unmarked) [Example 6, 7-(1-((9H-purin-6-yl)amino)propyl)-6-(4-fluorophenyl)-3-methyl-5H-thiazolo[3,2-a]pyridin-5-one]		
13	Cc1csc2cc(C(C)Nc3ncnc4[nH]cnc34)c(-c3ccccc3F)c(=O)n12 (centres unmarked) [Example 7, 7-(1-((9H-purin-6-yl)amino)ethyl)-6-(2-fluorophenyl)-3-methyl-5H-thiazolo[3,2-a]pyridin-5-one]		
7.2	Cc1csc2cc(C(C)Nc3ncnc4[nH]cnc34)c(-c3cccc(F)c3)c(=O)n12 (centres unmarked) [Example 8, 7-(1-((9H-purin-6-yl)amino)ethyl)-6-(3-fluorophenyl)-3-methyl-5H-thiazolo[3,2-a]pyridin-5-one]		
103	CCc1csc2cc(C(C)Nc3ncnc4[nH]cnc34)c(-c3ccccc3)c(=O)n12 (centres unmarked) [Example 9, 7-(1((9H-purin-6-yl)amino)ethyl)-3-ethyl-6-phenyl-5H-thiazolo[3,2-a]-pyridin-5-one]		
28	CCC(Nc1ncnc2[nH]cnc12)c1cc2scc(C)n2c(=O)c1-c1ccccc1F (stereo not drawn) [Example 10, 7-(l-((9H-purin-6-yl)amino)propyl)-6-(2-fluorophenyl)-3-methyl-5H-thiazolo[3,2-a]pyridin-5-one]		
12	CCC(Nc1ncnc2[nH]cnc12)c1cc2scc(C)n2c(=O)c1-c1cccc(F)c1 (centres unmarked) [Example 11, 7-(1((9H-purin-6-yl)amino)propyl)-6-(3-fluorophenyl)-3-methyl-5H-thiazolo[3,2-a]pyridin-5-one]		
2.7	CC(Nc1ncnc2[nH]cnc12)c1cc2scc(Cl)n2c(=O)c1-c1cccc(F)c1 (centres unmarked) [Example 12, 7-(1-((9H-purin-6-yl)amino)ethyl)-3-chloro-6-(3-fluorophenyl)-5H-thiazolo[3,2-a]pyridin-5-one]	24	
7.5	CCC(Nc1ncnc2[nH]cnc12)c1cc2scc(Cl)n2c(=O)c1-c1cccc(F)c1 (centres unmarked) [Example 13, 7-(1-((9H-purin-6-yl)amino)propyl)-3-chloro-6-(3-fluorophenyl)-5H-thiazolo[3,2-a]pyridin-5-one]	36	
8.5	CC(Nc1ncnc2[nH]cnc12)c1cc2scc(Cl)n2c(=O)c1-c1ccccc1 (centres unmarked) [Example 14, 7-(1-((9H-purin-6-yl)amino)ethyl)-3-chloro-6-phenyl-5H-thiazolo[3,2-a]-pyridin-5-one]	49	
44.8	CCC(Nc1ncnc2[nH]cnc12)c1cc2scc(Cl)n2c(=O)c1-c1ccccc1 (centres unmarked) [Example 15, 7-(1-((9H-purin-6-yl)amino)propyl)-3-chloro-6-phenyl-5H-thiazolol[3,2-a]-pyridin-5-one]		
4.4	CC(Nc1ncnc2[nH]cnc12)c1cc2scc(C(F)(F)F)n2c(=O)c1-c1cccc(F)c1 (centres unmarked) [Example 16, 7-(1-((9H-purin-6-yl)amino)ethyl)-6-(3-fluorophenyl)-3-(trifluoromethyl)-5H-thiazolo[3,2-a]pyridin-5-one]	87	
85	CCC(Nc1ncnc2[nH]cnc12)c1cc2scc(C(F)(F)F)n2c(=O)c1-c1cccc(F)c1 (centres unmarked) [Example 17, 7-(1-((9H-purin-6-yl)amino)propyl)-6-(3-fluorophenyl)-3-(trifluoromethyl)-5H-thiazolo[3,2-a]pyridin-5-one]		
	CC(Nc1ncnc2[nH]cnc12)c1cc2scc(C(F)(F)F)n2c(=O)c1-c1ccccc1 (centres unmarked) [Example 18, 7-(1-((9H-purin-6-yl)amino)ethyl)-6-phenyl-3-(trifluoromethyl)-5H-thiazol-[3,2-a]pyridin-5-one]		IC50 (WSU-NHL): 95 nM; IC50 (SU-DHL-6 cell): 23 nM
17	CCC(Nc1ncnc2[nH]cnc12)c1cc2scc(C(F)(F)F)n2c(=O)c1-c1ccccc1 (centres unmarked) [Example 19]		
7.8	O=c1c(-c2cccc(F)c2)c(C(Nc2ncnc3[nH]cnc23)C2CC2)cc2scc(Cl)n12 (centres unmarked) [Example 20, 7-(((9H-purin-6-yl)amino)(cyclopropyl)methyl)-3-chloro-6-(3-fluorophenyl)-5H-thiazolo[3,2-a]pyridin-5-one]	39	
27	O=c1c(-c2ccccc2)c(C(Nc2ncnc3[nH]cnc23)C2CC2)cc2scc(Cl)n12 (centres unmarked) [Example 21, 7-(((9H-purin-6-yl)amino)(cyclopropyl)-methyl)-3-chloro-6-phenyl-5H-thiazolo-[3,2-a]pyridin-5-one]	20	
186	O=c1c(-c2cccc(F)c2)c(C(Nc2ncnc3[nH]cnc23)C2CC2)cc2scc(C(F)(F)F)n12 (centres unmarked) [Example 22, 7-(((9H-purin-6-yl)amino)(cyclopropyl)-methyl)-6-(3-fluorophenyl)-3-(trifluoromethyl)-5H-thiazolo[3,2-a]-pyridin-5-one]		
27	O=c1c(-c2ccccc2)c(C(Nc2ncnc3[nH]cnc23)C2CC2)cc2scc(C(F)(F)F)n12 (centres unmarked) [Example 23, 7-(((9H-purin-6-yl)amino)(cyclopropyl)-methyl)-6-phenyl-3-(trifluoromethyl)-5H-thiazolo[3,2-a]pyridin-5-one]		
5.7	Cc1csc2cc(C(Nc3ncnc4[nH]cnc34)C3CC3)c(-c3ccccc3)c(=O)n12 (centres unmarked) [Example 24, 7-(((9H-purin-6-yl)amino)(cyclopropyl)methyl)-3-methyl-6-phenyl-5H-thiazolo[3,2-a]pyridin-5-one]	16	
3.6	Cc1csc2cc(C(Nc3ncnc4[nH]cnc34)C3CC3)c(-c3cccc(F)c3)c(=O)n12 (centres unmarked) [Example 25, 7-(((9H-purin-6-yl)amino)(cyclopropyl)methyl)-6-(3-fluorophenyl)-3-methyl-5H-thiazolo[3,2-a]pyridin-5-one]	47	
	Cc1nc(N)nc(NC(C)c2cc3scc(C)n3c(=O)c2-c2ccccc2)c1C#N (centres unmarked) [Example 26, 2-amino-4-methyl-6-((1-(3-methyl-5-oxo-6-phenyl-5H-thiazolo[3,2-a]pyridin-7-yl)ethyl)amino)pyrimidine-5-carbonitrile]	< 9	
	Cc1nc(N)nc(NC(C)c2cc3scc(Cl)n3c(=O)c2-c2cccc(F)c2)c1C#N (centres unmarked) [Example 27, 2-amino-4-((1-(3-chloro-6-(3-fluorophenyl)-5-oxo-5H-thiazolo[3,2-a]pyridin-7-yl)ethyl)amino)-6-methylpyrimidine-5-carbonitrile]	< 9	
